Experimental data taken from patent US20220362174A1, “Use of R-enantiomer Beta2-agonists for prevent and treatment of pulmonary inflammation and inflammatory remodeling for reduced adverse effects” (priority 2019, published 2022).
Entries after “also recorded” stand apart in the source; their conditions may differ.

Key:
[1] = system: OVA induced asthma mice; experiment: Combination therapy of ipratropium with RS-, R- and S-salbutamol: airway resistance in response to methacholine; type: in vivo
Procedure: OVA sensitized/challenged asthma model Mice were sensitized and challenged with ovalbumin (OVA) or normal saline. […] On days 21, 22 and 23, the mice were challenged with 1% OVA in saline (0.01 g/mL) for 20 min via. a nebulizer (PART Turbo boy). […] In vivo airway responsiveness to methacholine (Mch) was assessed on day 28 in conscious, freely moving, spontaneously breathing mice by a whole-body plethysmography (Buxco Electronics Inc.). […] Before Mch challenge, a 20 μL drug aerosol or saline was given to the mice because of the short-acting bronchodilating effect of terbutaline. The degree of bronchoconstriction was expressed as enhanced pause (Penh), a calculated dimensionless value that correlates with measurement of airway resistance, impedance, and intrapleural pressure. […] Methods used were similar as mentioned above. Nebulized aerosol of saline, Methacholine 2 mg/ml (low dose) or 10 mg/ml (high dose) were given via inhalation to OVA induced asthma mice.

[2] = system: RAW264.7 cells; experiment: Cell viability, CCK-8 assay; type: cell-based; settings: up to 100 μM, with or without LPS (100 ng/mL)
[3] = system: LPS-induced macrophage RAW264.7 cells; experiment: M1 macrophage cytokines (TNF-α, IL-1β, MCP-1) by ELISA; type: cell-based
Procedure: (§1) Macrophages were treated without or with (R)/(S)-salbutamol for 1 h prior to LPS stimulation and subsequently incubated for 12 h. […] The fluorescence of the oxidized product (2′,7′-dichlorofluorescein, DCF) was assessed using an LSM710 Laser Scanning Confocal Microscope (Carl Zeiss, Jena, Germany). The concentration of NO in the culture supernatant was measured by assaying the concentrations of nitrite (a stable NO breakdown product) using the Griess assay (Beyotime, Shanghai, China), according to the manufacturer's instructions. The intracellular NO level was detected using the NO-sensitive fluorescence probe DAF-FM DA (Sigma, St. Louis, Mo., USA) (24). Cells were labeled with DAF-FM DA (10 μM) at 37° C. for 30 min and were gently washed three times with PBS. Fluorescence was detected using a LSM710 Laser Scanning Confocal Microscope (Scale bars, 100 μm) (Carl Zeiss, Jena, Germany).
To confirm that M1 polarization was predominant over M2 polarization after stimulation with LPS, the levels of typical M1 macrophage cytokines (i.e., TNF-α, IL-1β and MCP-1) were quantified using ELISA; these cytokines are mainly synthesized by macrophages and play an important role in inflammatory diseases (35,36). This invention disclosed that TNF-α […] from 2.62-fold to 0.75-fold of control levels following LPS stimulation (FIG. 8A). IL-1β is a hallmark of many chronic inflammatory diseases in humans and is reportedly associated with acute phase reactions (35,37). […] We conclude that LPS is likely to lead to M1 polarization but not M2 polarization.

[4] = system: LPS-induced RAW264.7 cells; experiment: NO production (DAF-FM DA probe, Griess assay); type: cell-based
Procedure: as §1
(§2) In addition, the concentration of NO in the culture supernatant was measured by assaying the concentrations of nitrite (a stable NO breakdown product) using the Griess assay. […] To investigate (R)-salbutamol role on the level of iNOS, the mRNA and protein levels of iNOS were determined.

[5] = system: iNOS; experiment: iNOS mRNA and protein levels; type: cell-based
Procedure: as §2

[6] = system: LPS-induced RAW264.7 cells; experiment: Intracellular ROS (DCFH-DA); type: cell-based
Procedure: as §1
LPS can promote cell apoptosis through mitochondrial dysfunction, and mitochondria are the major source of ROS.

[7] = system: LPS-induced RAW264.7 cells; experiment: Seahorse analysis of OCR and ECAR; type: cell-based; settings: LPS-treated cells
Procedure: as §1
Macrophage activation elicited different metabolic profiles. LPS-induced macrophages adopted glycolytic metabolic profiles. This invention disclosed a β2 adrenergic receptor mediated Warburg metabolism (aerobic glycolysis) of in LPS treated macrophages. The OCR and ECAR were measured using an extracellular flux analyzer. […] ECAR is a measurement extracellular acidification rate, an indication of cellular glycolytic rate.

[8] = system: BALB/c mice; experiment: Survival study after LPS challenge (sepsis); type: in vivo; settings: for Percent of death after LPS challenges, 24 h: Saline + LPS 36.4; for Percent of death after LPS challenges, 36 h: Saline + LPS 72.7; for Percent of death after LPS challenges, 48 h / Percent of death after LPS challenges, 72 h / Percent of death after LPS challenges, 144 h: Saline + LPS 90.9; for Percent of death after LPS challenges, 12 h: Saline + LPS 0; for rate of mortality/death after LPS challenge (in words): in comparison of LPS challenged group without pretreatment (mortality 90.9%)
Procedure: Treatment were given intraperitoneally for 3 consecutive days. One hour after the 3rd day treatments, LPS (15 mg/kg) was administered intraperitoneally. The animals were monitored. Survival rate was then recorded every 12 h for 144 hours.

[9] = system: BALB/c mice; experiment: Lung function measurements 6 hours after LPS (Buxco); type: in vivo
Procedure: Methods: Survival study: […] Treatment were given intraperitoneally for 3 consecutive days. […] The animals were monitored. Survival rate was then recorded every 12 h for 144 hours. The lung functions were measured with using Buxco system (Buxco Electronics, USA). After a brief acclimation to the chamber, the mice received an initial baseline challenge of saline. Measures were made at 6 hours after administration of LPS, including tidal volume and Penh which is an indication of airway resistance.

[10] = system: NF-κB and MARK pathways; experiment: NF-κB and MARK pathways, cytokines and ROS in LPS sepsis
Description: LPS interacts with pathogen recognition receptors such as TLRs would also activate NF-κB and MARK pathways, which would further lead to an over-production of cytokines. […] The “cytokine storm” in sepsis involves in excessive release of INFs, IL-1B, IL-2,4,6,10,12, TNFa and MCP etc.
In sepsis, there are also over productions of chemokines such as ROS. […] This invention disclosed the similar effects of other RS-racemic, S-enantiomer or R-enantiomer beta2 agonists including: salbutamol, bambuterol, vilanterol, clenterol, salmeterol, formoterol, trantinterol and Indacaterol and other β2 agonists.

In the case of `CC(C)(C)NC[C@H](O)c1ccc(O)c(CO)c1` [R-salbutamol, (R)-Salbutamol], the “increase in airway resistant in response to methacholine (in words)” value [1] was “significantly diminished”, the “increase in airway resistance after treatment” value ([1]; response to methacholine, OVA + Saline 445%) was 180% and the cell viability [2] was “no changes in cell viability”. The “concentration of MCP-1 (ELISA)” value ([3]; LPS alone 1.588 ng/mL) was 1.15 ng/mL, the “IL-1β (ELISA)” value ([3]; LPS alone 2.24-fold) was 1.12 fold of control levels and the “TNF-α (ELISA)” value ([3]; LPS alone 2.62-fold) was 0.75 fold of control levels. For the same molecule, the “release and expression of cytokines in LPS induced M1 macrophages (in words)” value ([3]; LPS challenge) was “inhibited the expression of cytokines”, the “production/levels of NO (in words)” value ([4]; LPS-induced cells) was “significantly decreased; also recorded: inhibited” and the “decrease of the level of DAF fluorescence (intracellular NO)” value ([4]; pretreated before LPS, LPS increased by 424% vs control) was 2.68 fold. For the same molecule, the “decrease of NO2- expression (Griess assay, culture supernatant)” value ([4]; pretreatment before LPS, LPS increased 20.25-fold vs control) was 2.28 fold, the iNOS protein levels ([5]; LPS+ (R)-salbutamol vs LPS) was “same changes” and the “iNOS mRNA level” value ([5]; pretreated plus LPS, vs LPS) was “decreased; also recorded: inhibited”. The “production/levels of ROS (in words)” value ([6]; LPS-induced cells) was “significantly decreased”, the “decrease of the level of DCF (ROS)” value ([6]; pretreated before LPS, LPS increased 7.30-fold) was 3.38 fold and the “ECAR, aerobic glycolysis” value [7] was “inhibited the aerobic glycolysis; also recorded: significantly reduced aerobic glycolysis”. For the same molecule, the “Percent of death after LPS challenges, 24 h” value ([8]; 0.1 mg/kg + LPS) was 20%, the “Percent of death after LPS challenges, 36 h” value ([8]; 0.1 mg/kg + LPS) was 20% and the “Percent of death after LPS challenges, 48 h” value ([8]; 0.1 mg/kg + LPS) was 40%. For the same molecule, the “Percent of death after LPS challenges, 72 h” value ([8]; 0.1 mg/kg + LPS) was 40%, the “Percent of death after LPS challenges, 144 h” value ([8]; 0.1 mg/kg + LPS) was 40% and the “Percent of death after LPS challenges, 12 h” value ([8]; 0.1 mg/kg i.p. 3 days + LPS 15 mg/kg) was 0%. For the same molecule, the “Percent of death after LPS challenges, 12 h” value ([8]; 0.5 mg/kg + LPS) was 0%, the “Percent of death after LPS challenges, 24 h” value ([8]; 0.5 mg/kg + LPS) was 0% and the “Percent of death after LPS challenges, 36 h” value ([8]; 0.5 mg/kg + LPS) was 0%. For the same molecule, the “Percent of death after LPS challenges, 48 h” value ([8]; 0.5 mg/kg + LPS) was 0%, the “Percent of death after LPS challenges, 72 h” value ([8]; 0.5 mg/kg + LPS) was 0% and the “Percent of death after LPS challenges, 144 h” value ([8]; 0.5 mg/kg + LPS) was 0%. For the same molecule, the “Percent of death, 12 h” value ([8]; 0.5 mg/kg + saline (no LPS)) was 0%, the “Percent of death, 24 h” value ([8]; 0.5 mg/kg + saline (no LPS)) was 0% and the “Percent of death, 36 h” value ([8]; 0.5 mg/kg + saline (no LPS)) was 0%. The “Percent of death, 48 h” value ([8]; 0.5 mg/kg + saline (no LPS)) was 0%, the “Percent of death, 72 h” value ([8]; 0.5 mg/kg + saline (no LPS)) was 0% and the “Percent of death, 144 h” value ([8]; 0.5 mg/kg + saline (no LPS)) was 0%. For the same molecule, the “rate of mortality/death after LPS challenge (in words)” value [8] was “survived”, the “rate of mortality/death after LPS challenge (in words)” value ([8]; listed as (R)-salbutamol) was “greatly reduced or even diminished” and the “deterioration of respiratory function induced by LPS (in words)” value [9] was “restored”. The Tidal volume ([9]; 0.1 mg/kg, LPS + saline 0.13 ± 0.03, Saline 0.22 ± 0.02) was 0.17 ± 0.02 mL, the Penh ([9]; 0.1 mg/kg, LPS + saline 1.31 ± 0.40, Saline 0.54 ± 0.09) was 0.68 ± 0.09 and the Tidal volume ([9]; 0.5 mg/kg, LPS + saline 0.13 ± 0.03) was 0.21 ± 0.02 mL. The Penh ([9]; 0.5 mg/kg, LPS + saline 1.31 ± 0.40) was 0.53 ± 0.07, the “over production of inducible NO (iNO) and another ROS” value ([10]; LPS sepsis) was “significantly prevent and inhibit” and the “production or release of cytokines (cytokine storm)” value ([10]; sepsis) was “significantly reduced”.
